According to patent publication US8247211B2, “Glycopeptide antibiotics” (American Cyanamid Company, priority 2001, dated 2012):
Values after ≈ are worked out from the molar mass of the structure shown.

Assays:
Staphylococcus sp. = test: In vitro antibacterial evaluation: minimum inhibitory concentration (MIC), broth dilution method; type: cell-based; conditions: for MIC Staphylococcus aureus (ATCC 29213): strain ATCC 29213; for MIC Staphylococcus aureus (GC 3051): strain GC 3051; for MIC Staphylococcus aureus (GC 3053): strain GC 3053; for MIC Staphylococcus aureus (GC 4541): strain GC 4541; for MIC Staphylococcus aureus (GC 4542): strain GC 4542; for MIC Staphylococcus aureus (GC 4545): strain GC 4545; for MIC Staphylococcus haemolyticus (GC 4546): strain GC 4546; for MIC Coagulase Negative Staphylococcus (GC 4547): strain GC 4547; for MIC Coagulase Negative Staphylococcus (GC 4548): strain GC 4548; for MIC Coagulase Negative Staphylococcus (GC 4549): strain GC 4549; for MIC Coagulase Negative Staphylococcus (GC 4551): strain GC 4551; for MIC Coagulase Negative Staphylococcus (GC 6257): strain GC 6257
Method in brief: (§1)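 First, organisms are seeded at 5×10^5 CFU/mL into Muller-Hinton II […]. Next, antibiotic is applied across 64-0.06 μg/mL by broth dilution (NCCLS M7-A2). Finally, the lowest inhibitory concentration is recorded as MIC.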

Streptococcus sp. = test: as above; type: cell-based; conditions: broth dilution, 18 hours at 35° C.
Method in brief: as §1

Enterococcus sp. = test: as above; type: cell-based; conditions: broth dilution, 18 hours at 35° C.
Method in brief: as §1

Escherichia coli = test: as above; type: cell-based; conditions: 5×10^5 CFU/mL, 18 hours at 35° C.
Method in brief: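 NCCLS M7-A2 broth dilution with Mueller-Hinton II, testing 64-0.06 μg/mL antibiotic against 5×10^5 CFU/mL inocula. Test strains include recent methicillin-, penicillin- or vancomycin-resistant clinical isolates. MIC is the lowest concentration preventing growth.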

[1] = system: Staphylococcus aureus-SMITH (GC 4543); test: Acute lethal infection in mice (ED50); type: in vivo; conditions: female CD-1 mice, intraperitoneal challenge, intravenous dose 30 min. after infection, 7 day survival ratios
Method in brief: (§2)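 Female CD-1 mice challenged intraperitoneally with a bacterial dose lethal to untreated controls within 24-48 h. Compound given intravenously in saline or 5% dextrose 30 min post-infection, five mice per dose; ED50 from 7-day survival pooled over 3 tests.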

[2] = system: Streptococcus pneumoniae (GC 1894), penicillin resistant strain; test: Acute lethal infection in mice (ED50); type: in vivo; conditions: female CD-1 mice, intraperitoneal challenge, intravenous dose 30 min. after infection, 7 day survival ratios
Method in brief: as §2

[3] = system: Enterococcus faecalis (GC 6189), vancomycin resistant strain; test: Acute lethal infection in mice (ED50); type: in vivo; conditions: female CD-1 mice, intraperitoneal challenge, intravenous dose 30 min. after infection, 7 day survival ratios
Method in brief: as §2

[4] = Anatomic pathology (heart and kidney histopathology) in mice; type: in vivo, CD-1 mice; conditions: 20 mg/kg intravenously daily for 9 days, microscopic histopathology on day 10
Method in brief: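 Juvenile CD-1 mice (20 days old; 5 vehicle, 5 treated) received glycopeptide antibiotic 20 mg/kg i.v. daily for 9 days. Necropsied tissues formalin-fixed, paraffin-embedded, H&E stained and examined microscopically; findings graded slight to severe versus controls.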

[5] = type: in vivo; conditions: mice, 20 mg/kg intravenously daily for 9 days, serum on day 10
Protocol: 20-day-old CD-1 mice were divided into a vehicle control group (5 mice) and a treatment group (5 mice). Samples of glycopeptide antibiotics were administered at 20 mg/kg intravenously daily for 9 days. Animals were necropsied on day 10 Sera were analyzed for BUN (blood urea nitrogen), creatinine, AST (aspartic aminotransferase), and ALT (alanine aminotransferase) by routine, standard, automated methods using an Hitachi 747 chemistry analyzer.

[6] = broth dilution, 18 hours at 35° C.

## CC(c1ccccc1)C1NC(=O)CNC(=O)C(CO)NC(=O)C(C(O)C2CNC(=N)N2C2OC(CO)C(O)C(O)C2O)NC(=O)C(C(O)C2CNC(=N)N2)NC(=O)C(Cc2ccc(OC3OC(CO)C(OC4OC5COC6(OC5C(O)C4O)C4CC5CC(C4)CC6C5)C(O)C3O)cc2)NC1=O (stereo not drawn) [Example 105, Cyclo[glycyl-β-methylphenylalanyl-O-[4-O-[4,6-O-(2-adamantylidene)hexopyranosyl]hexopyranosyl]tyrosyl-3-(2-iminoimidazolidin-4-yl)seryl-3-(3-hexopyranosyl-2-iminoimidazoliclin-4-yl)serylseryl]]
Staphylococcus sp.
  MIC Staphylococcus aureus (ATCC 29213): <0.5 to 1 µg/mL
  MIC Staphylococcus aureus (GC 3051): 0.5 to 1 µg/mL
  MIC Staphylococcus aureus (GC 3053): 1 to 2 µg/mL
  MIC Staphylococcus aureus (GC 4541): <0.5 to 1 µg/mL
  MIC Staphylococcus aureus (GC 4542): 0.5 to 1 µg/mL
  MIC Staphylococcus aureus (GC 4545): <0.5 to 1 µg/mL
  MIC Staphylococcus haemolyticus (GC 4546): <0.5 to 1 µg/mL
  MIC Coagulase Negative Staphylococcus (GC 4547): 0.5 to 1 µg/mL
  MIC Coagulase Negative Staphylococcus (GC 4548): <0.5 to 1 µg/mL
  MIC Coagulase Negative Staphylococcus (GC 4549): 0.5 to 1 µg/mL
  MIC Coagulase Negative Staphylococcus (GC 4551): <0.5 to 1 µg/mL
  MIC Coagulase Negative Staphylococcus (GC 6257): 0.5 to 1 µg/mL
Staphylococcus sp.; [6]
  MIC Staphylococcus aureus (ATCC 29213): <0.5 to 1 µg/mL
  MIC Staphylococcus aureus (GC 3051): 0.5 to 1 µg/mL
  MIC Staphylococcus aureus (GC 3053): 1 to 2 µg/mL
  MIC Staphylococcus aureus (GC 4541): <0.5 to 1 µg/mL
  MIC Staphylococcus aureus (GC 4542): 0.5 to 1 µg/mL
  MIC Staphylococcus aureus (GC 4545): <0.5 to 1 µg/mL
  MIC Staphylococcus haemolyticus (GC 4546): <0.5 to 1 µg/mL
  MIC Coagulase Negative Staphylococcus (GC 4547): 0.5 to 1 µg/mL
  MIC Coagulase Negative Staphylococcus (GC 4548): <0.5 to 1 µg/mL
  MIC Coagulase Negative Staphylococcus (GC 4549): 0.5 to 1 µg/mL
  MIC Coagulase Negative Staphylococcus (GC 4551): <0.5 to 1 µg/mL
  MIC Coagulase Negative Staphylococcus (GC 6257): 0.5 to 1 µg/mL
Streptococcus sp.; Streptococcus agalactiae (GC 4564)
  MIC Streptococcus agalactiae (GC 4564): <0.06 to 0.25 µg/mL
Streptococcus sp.; Streptococcus pneumoniae (ATCC 6301)
  MIC Streptococcus pneumoniae (ATCC 6301): <0.06 µg/mL
Streptococcus sp.; Streptococcus pneumoniae (GC 1894)
  MIC Streptococcus pneumoniae (GC 1894): <0.06 µg/mL
Streptococcus sp.; Streptococcus pneumoniae (GC 4565)
  MIC Streptococcus pneumoniae (GC 4565): <0.06 µg/mL
Streptococcus sp.; Streptococcus pyogenes (GC 4563)
  MIC Streptococcus pyogenes (GC 4563): <0.06 to 0.12 µg/mL
Streptococcus sp.; 5×10^5 CFU/mL
  MIC Streptococcus agalactiae (GC 4564): <0.06 to 0.25 µg/mL
  MIC Streptococcus pneumoniae (GC 1894): <0.06 µg/mL
  MIC Streptococcus pneumoniae (GC 4565): <0.06 µg/mL
  MIC Streptococcus pneumonine (ATCC 6301): <0.06 µg/mL
  MIC Streptococcus pyogenes (GC 4563): <0.06 to 0.12 µg/mL
Enterococcus sp.; Enterococcus avium (GC 4558)
  MIC Enterococcus avium (GC 4558): 1 to 2 µg/mL
Enterococcus sp.; Enterococcus faecalis (ATCC 29212)
  MIC Enterococcus faecalis (ATCC 29212): 1 to 2 µg/mL
Enterococcus sp.; Enterococcus faecalis (GC 2242)
  MIC Enterococcus faecalis (GC 2242): 0.5 to 2 µg/mL
Enterococcus sp.; Enterococcus faecalis (GC 2691)
  MIC Enterococcus faecalis (GC 2691): 1 to 2 µg/mL
Enterococcus sp.; Enterococcus faecalis (GC 3059)
  MIC Enterococcus faecalis (GC 3059): 1 to 2 µg/mL
Enterococcus sp.; Enterococcus faecalis (GC 4552)
  MIC Enterococcus faecalis (GC 4552): 1 to 2 µg/mL
Enterococcus sp.; Enterococcus faecalis (GC 4553)
  MIC Enterococcus faecalis (GC 4553): 1 to 2 µg/mL
Enterococcus sp.; Enterococcus faecalis (GC 4554)
  MIC Enterococcus faecalis (GC 4554): 1 to 2 µg/mL
Enterococcus sp.; Enterococcus faecalis (GC 6189)
  MIC Enterococcus faecalis (GC 6189): 1 to 2 µg/mL
Enterococcus sp.; Enterococcus faecium (GC 2243)
  MIC Enterococcus faecium (GC 2243): 1 to 2 µg/mL
Enterococcus sp.; Enterococcus faecium (GC 4556)
  MIC Enterococcus faecium (GC 4556): 0.5 to 2 µg/mL
Enterococcus sp.; Enterococcus faecium (GC 4557)
  MIC Enterococcus faecium (GC 4557): 1 to 2 µg/mL
Enterococcus sp.; 5×10^5 CFU/mL
  MIC Enterococccus avium (GC 4558): 1 to 2 µg/mL
  MIC Enterococccus faecalis (ATCC 29212): 1 to 2 µg/mL
  MIC Enterococccus faecalis (GC 2691): 1 to 2 µg/mL
  MIC Enterococccus faecalis (GC 3059): 1 to 2 µg/mL
  MIC Enterococccus faecalis (GC 4552): 1 to 2 µg/mL
  MIC Enterococccus faecalis (GC 4553): 1 to 2 µg/mL
  MIC Enterococccus faecalis (GC 4554): 1 to 2 µg/mL
  MIC Enterococccus faecalis (GC 6189): 1 to 2 µg/mL
  MIC Enterococccus faecium (GC 2243): 1 to 2 µg/mL
  MIC Enterococccus faecium (GC 4556): 0.5 to 2 µg/mL
  MIC Enterococccus faecium (GC 4557): 1 to 2 µg/mL
  MIC Enterococcus faecalis (GC 2242): 0.5 to 2 µg/mL
Escherichia coli
  MIC Escherichia coli (ATCC 25922): 16 to 32 µg/mL
  MIC Escherichia coli (GC 4559): 32 µg/mL (≈ 22.4 µM)
  MIC Escherichia coli (GC 4560): 0.5 to 2 µg/mL
[1]
  median effective dose (ED50), Staphylococcus aureus-SMITH (GC 4543): 0.04-0.08
[2]
  median effective dose (ED50), Streptococcus pneumoniae (GC 1894): 0.04 mg/kg
[3]
  median effective dose (ED50), Enterococcus faecalis (GC 6189): 1.8-1.96
[4]
  Anatomical Pathology (Day 10), Heart: +++
  Anatomical Pathology (Day 10), Kidney: +++
[5]
  Clinical Chemistry (Day 10) % of Control, ALT: +480%
  Clinical Chemistry (Day 10) % of Control, AST: +205%
  Clinical Chemistry (Day 10) % of Control, BUN: +35%
